Literature values, collected in patent US10463613B2, “Cromolyn compositions for treatment of chronic cough due to idiopathic pulmonary fibrosis” (Respivant Sciences GmbH, priority 2016, dated 2019).
Like-named read-outs stand apart in the source and are kept apart here.

Conditions: in vivo

For `O=C([O-])c1cc(=O)c2c(OCC(O)COc3cccc4oc(C(=O)O)cc(=O)c34)cccc2o1.[Na+]` [cromolyn sodium, disodium 5,5′-(2-hydroxypropane-1,3-diyl)bis(oxy)bis(4-oxo-4H-chromene-2-carboxylate)], the “Bioavailability of available formulations” value is given as “approximately 1%”, the Oral bioavailability is given as about 1% and the Oral bioavailability (listed as cromolyn) is given as “about 1%”.
